The record followed here is patent EP1614683B1, “Indazole compounds and pharmaceutical compositions for inhibiting protein kinases, and methods for their use” (priority 1999, dated 2001).

SMILES strings stand for the structures. Where “and” joins values, the source holds several entries; their conditions need not be identical. Equal entries are not always repeated. Where two headings read alike, the source gives them in different places.

Series [1] concerns human umbilical vein endothelial cells (HUVEC). In words: HUVEC proliferation assay (VEGF-stimulated, MTT). As to conditions: Homo sapiens, HUVEC, Table 1. The series is classed as cell-based.
A further series can be described thus: in vitro. The series is classed as in vitro ADME, human. As to conditions: 2 h. The procedure, abridged: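 HLM diluted to 5 mg/mL in 100 mM KPO4, preincubated 10 min at 37 °C with NADPH-regenerating system. Compound (5 µM final) incubated at 37 °C in triplicate, sampled at 0 and 2 h into ice-cold acetonitrile, then LC-MS analysis.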
For series [2], the system named is VEGF dependent retinal neovascularization. Description: Neonatal rat model of retinopathy of prematurity. As to conditions: Model ROP, intravitreal, vehicle PEG/water 70:30. Type of series: in vivo. The protocol: A second model of VEGF dependent retinal neovascularization was employed to evaluate the activities of this series of compounds. […] The animals are exposed for 24 hours to a concentration of 50% oxygen followed by 24 hours at a concentration of 10% oxygen. This alternating cycle of hyperoxia followed by hypoxia is repeated 7 times after which the animals are removed to room air (P14). Compounds are administered via intravitreal injection upon removal to room air and the animals are sacrificed 6 days later (P20). The isolated retinas are then isolated, stained mounted and analyzed as detail above in the development model. The effectiveness was also graded as is described for the development model.

A further series addresses LCK tyrosine kinase (Homo sapiens, UniProt P06239, C224D/P223M). In words: LCK spectrophotometric assay. Type of series: biochemical. As to conditions: Table 1; compound concentration 1 µM; read-out: Lck-P* (% inhibition). The protocol:
The spectrophotometric assay was carried out as described above for VEGF-R2, except for the following changes in concentration: LCK = 60 nM, MgCl2 = 0 mM, poly(E4Y1) = 20 mM.

Another series has as its target human FGF-R1 (Homo sapiens, UniProt P11362, C488A/C584S/L457V). In words: FGF-R spectrophotometric assay. Particulars: Table 1; compound concentration 1 µM; read-out: FGF-P* (% inhibition). Type of series: biochemical. The protocol: The spectrophotometric assay was carried out as described above for VEGF-R2, except for the following changes in concentration: FGF-R = 50 nM, ATP = 2 mM, and poly(E4Y1) =15 mM.

The conditions of series [3]: for AUCleast: mouse, in vivo, pH 2.3; for T1/2: vehicle PEG400:H2O pH 2.3 60:40.
The subject of series [4] is VEGF dependent retinal vascular development. Description: In vivo assay of retinal vascular development in neonatal rats. As to conditions: Model P8, intravitreal, 5 mg/ml, vehicle PEG/water 50:50. Set-up: species or system rat. The protocol: The development of the retinal vascular in rats occurs from postnatal day 1 to postnatal day 14 (P1-P14). […] To assess the ability of specific compounds to inhibit the activity of VEGF in vivo, compounds were formulated in an appropriate vehicle, usually 50% polyethylene glycol, average molecular weight 400 daltons, and 50% solution of 300 mM sucrose in deionized water. […] Six days after the intravitreal injection, the animals were sacrificed and the retinas dissected free from the remaining ocular tissue. […] The individual retinas are then flat-mount onto glass slides and examined to determine the extent of vascularization. […] The amount of vessel regression was used to assess the relative potency of the compounds after in vivo administration.
For more quantitative analysis of regression, images of ADPase-stained, flat-mounted retinas were captured with a digital camera attached to a dissecting microscope. Retinal images were then imported into an image analysis software (Image Pro Plus 4.0, Media Cybernetics, Silver Spring, MD). The software was employed to determine the percentage of the area of the retina that contained stained vessels. This value for the experimental eye was compared to that measured for the vehicle injected, contralateral eye from the same animal. The reduction in the vascular area seen in the eye that received compound as compared to the vehicle-injected eye was then expressed as the "percent regression" for that sample.

Series [5] deals with unphosphorylated VEGF-R2Δ50 (Homo sapiens, UniProt P35968, DEL940-989/E990V). In words: biochemical. As to conditions: read-out: FLVK ** (% inhibition).
Another series can be described thus: in vivo. Particulars: mouse, plasma, pH 2.3.
Where [6] appears, read: + albumin, read-out: HUVEC + albumin IC50.
Where [7] appears, read: human liver microsomes, 5 µM test compound, 37 °C.

Chain of human FGF-R1 (P11362 456-766 L457V/C488A/C584S): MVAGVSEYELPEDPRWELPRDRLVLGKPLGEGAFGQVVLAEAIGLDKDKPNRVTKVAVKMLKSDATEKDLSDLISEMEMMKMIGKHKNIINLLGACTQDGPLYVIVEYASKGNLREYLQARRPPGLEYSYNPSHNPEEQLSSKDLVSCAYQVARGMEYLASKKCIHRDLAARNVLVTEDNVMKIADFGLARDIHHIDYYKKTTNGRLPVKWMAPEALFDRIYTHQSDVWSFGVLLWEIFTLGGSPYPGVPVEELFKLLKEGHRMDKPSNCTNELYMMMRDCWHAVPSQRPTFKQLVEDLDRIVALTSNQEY
Chain of LCK tyrosine kinase (P06239 223-509 P223M/C224D): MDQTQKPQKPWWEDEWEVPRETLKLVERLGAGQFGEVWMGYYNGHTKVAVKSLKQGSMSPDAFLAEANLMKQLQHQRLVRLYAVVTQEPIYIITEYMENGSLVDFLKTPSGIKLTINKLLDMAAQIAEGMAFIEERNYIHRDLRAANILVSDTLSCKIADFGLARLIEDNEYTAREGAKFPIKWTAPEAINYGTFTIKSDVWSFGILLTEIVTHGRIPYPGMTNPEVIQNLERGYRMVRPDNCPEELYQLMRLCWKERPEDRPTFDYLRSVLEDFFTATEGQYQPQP
Chain of unphosphorylated VEGF-R2Δ50 (P35968 with tags, fused parts or gaps DEL940-989/E990V limits assumed): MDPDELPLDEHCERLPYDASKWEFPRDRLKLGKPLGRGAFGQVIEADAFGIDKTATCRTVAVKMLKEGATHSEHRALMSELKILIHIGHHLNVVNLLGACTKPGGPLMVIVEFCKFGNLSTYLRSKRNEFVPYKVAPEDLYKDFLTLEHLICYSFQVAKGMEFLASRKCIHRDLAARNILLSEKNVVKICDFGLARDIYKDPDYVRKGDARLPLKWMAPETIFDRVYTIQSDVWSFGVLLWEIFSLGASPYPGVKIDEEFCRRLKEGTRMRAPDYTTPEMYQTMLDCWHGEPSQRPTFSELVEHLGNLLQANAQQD

With `CC(=O)c1cccc(C(=O)Nc2cccc(N(C)c3ccc4c(/C=C/c5ccc6c(c5)OCO6)n[nH]c4c3)c2)c1` [16(e), 3-Acetyl-N-(3-{[3-(2-benzo[1,3]dioxol-5-yl-vinyl)-1H-indazol-6-yl]-methyl-amino}-phenyl)-benzamide], the IC50 (as a rule, the concentration that gives 50% inhibition) worked out at 106 nM in series [1] (setting [6]) and 4.9 nM in [1] (read-out: HUVEC IC50). In the series “in vitro” (human liver microsomes, 5 µM test compound, 37 °C, read-out: % remain (HLM, 2 h)), the remaining at 2 h, 5 µM was found to be 40%. Also, the % Inhibition (as a rule, the percentage by which the read-out fell short of the control) in series [2] (1 mg/ml) was 16%; in series [2] (5 mg/ml), 36% and 37%; in series [2] (10 mg/ml), 54%. For the same compound, the “Initial Evaluation” value is given as “++ (two pluses being judged to be approximately 25-75 % regression)” in series [2] (5 mg/ml) and “+++ (three pluses give to retinas with near total regression (approximately 75% or greater))” in series [2] (10 mg/ml). Further, the inhibition – broadly, the share of the control response that was lost under treatment – at 1 µM on LCK tyrosine kinase stood at 8%; at human FGF-R1 it was 59%.
For the compound `CCCn1nc(C)cc1C(=O)Nc1cccc(C(=O)c2ccc3c(/C=C/c4ccccn4)n[nH]c3c2)c1` [41 (r)], the AUCleast in [3] (ip, 25 mg/kg) was greater than 23752 ng·h/mL; in series [3] (po, 50 mg/kg) it was greater than 17789 ng·h/mL. Further, the “Initial Evaluation” value in [4] is recorded as “+/++ var”.
Turning to `C#CCNC(=O)c1ccccc1Nc1ccc2c(/C=C/c3ccccn3)n[nH]c2c1` [Example 39(b), 6-[2-(Prop-2-ynylcarbamoyl)phenylamino]-3-E-[2-(pyridin-2-yl)ethenyl]-1H-indazole], in series [4], the “% Inhibition” value is 9%. For the same compound, the “% remain (HLM, 2 h)” value in “in vitro” (human, microsomes, 5 µM) was 67%.
Turning to `Cc1nc(/C=C/c2n[nH]c3cc(C(=O)c4cccc(NC(=O)c5ccccc5)c4)ccc23)cs1` [Example 42(c)], the “% Inhibition” value in series [4] was determined as 36%.
Consider `O=C(Nc1cccc(C(=O)c2ccc3c(/C=N/n4cccc4)n[nH]c3c2)c1)c1ccccc1` [Example 45(b), 6-(3-Benzamidobenzoyl)-3-E-[N-(pyrrol-1-yl)iminomethyl]-1H-indazole], for which the “% remain (HLM, 2 h)” value in “in vitro” (human, microsomes, 5 µM) turned out to be 97%. Besides, the “% Inhibition” value in [2] (1 mg/ml) is 25%. In series [2] (10 mg/ml), the “% Inhibition” value is reported as 60% and the “Initial Evaluation” value is “++ (two pluses being judged to be approximately 25-75 % regression)”.
For `Cc1cc(C(=O)Nc2cc(Nc3ccc4c(/C=C/c5ccccn5)n[nH]c4c3)ccc2F)n(C)n1` [Example 49(a), 6-[N-(3-((1,3-Dimethyl-1H-pyrazol-5-yl)carboxamido)-4-fluorophenyl)amino]-3-E-[2-(pyridin-2-yl)ethenyl]-1H-indazole], the “% Inhibition” value in series [4] is on record as 54%.
As for `Cc1cc(C(=O)Nc2cc(Nc3ccc4c(/C=C/c5ccccn5)n[nH]c4c3)ccc2C)n(C)n1` [Example 49(b), 6-[N-(3-((1,3-Dimethyl-1H-pyrazol-5-yl)carboxamido)-4-methylphenyl)amino]-3-E-[2-(pyridin-2-yl)ethenyl]-1H-indazole], the “% Inhibition” value in [4] is listed as 5%. In series [5], the inhibition at 0.05 µM is 98%. The inhibition at 1 µM on LCK tyrosine kinase amounted to 9%; at human FGF-R1 it was 80%.
On to `CS(=O)(=O)c1ccc(C(=O)Nc2cccc(Oc3ccc4c(/C=C/c5ccccn5)n[nH]c4c3)c2)s1` [Reference Example 31(c), 6-[3-((5-methylsulfonylthien-2-yl)carboxamido)phenoxy]-3-E-[2-(pyridin-2-yl)ethenyl]-1H-indazole], for which, in series [1] (setting [6]), the IC50 is 11.4 nM. Further, the “Initial Evaluation” value in series [4] is “+/++ var”. Moreover, the “% remain (HLM, 2 h)” value in the series “in vitro” (setting [7]) was found to be 87%. Also, the inhibition at 1 µM at LCK tyrosine kinase was 81%; on human FGF-R1, 98%.
Consider `Cc1ccc2cc(NC(=O)c3ccccc3Sc3ccc4c(/C=C/c5ccccn5)n[nH]c4c3)ccc2n1` [Reference Example 33(b)], for which the T1/2 in series [3] (IP, 25 mg/kg) was 3.0 h; in series [3] (PO, 50 mg/kg), 3.0 h. For the same compound, the “Initial Evaluation” value in series [2] (10 mg/ml) was “++ (two pluses being judged to be approximately 25-75 % regression)”. Also, the AUC (commonly the area under the concentration-time curve, a measure of exposure) in the series “in vivo” (ip, 25 mg/kg) was found to be 11200 ng·h/mL; in “in vivo” (po, 50 mg/kg), 3920 ng·h/mL. At human FGF-R1, the inhibition at 1 µM was found to be 77%.
For `O=C(NCC(F)(F)F)c1ccccc1Sc1ccc2c(/C=C/c3ccccn3)n[nH]c2c1` [Reference Example 33(f), 6-[2-(2,2,2-trifluoroethylcarbamoyl)phenylsulfanyl]-3-E-[2-(pyridin-2-yl)ethenyl]-1H-indazole], the IC50 in series [1] (setting [6]) came to 17 nM. Further, in series [4], the “% Inhibition” value is 20%. In addition, the “% remain (HLM, 2 h)” value in “in vitro” (setting [7]) was 31%.
Take `C=CCONC(=O)c1ccccc1Sc1ccc2c(/C=C/c3ccccn3)n[nH]c2c1` [Reference Example 35(j), 6-[2-(Allyloxycarbamoyl)phenylsulfanyl]-3-E-[2-(pyridin-2-yl)ethenyl]-1H-indazole]: the “% Inhibition” value in [4] was 7%.
In the case of `Cc1cc(C(=O)Nc2cccc(C(=O)c3ccc4c(/C=C/c5ccccn5)n[nH]c4c3)c2)n[nH]1` [Reference Example 41(g), 6-[3-((5-methyl-1H-pyrazol-3-yl)carboxamido)benzoyl]-3-E-[2-(pyridin-2-yl)ethenyl]-1H-indazole], the IC50 in [1] (setting [6]) was greater than 10 nM; in [1] (read-out: HUVEC IC50), 0.9 nM. In addition, the “% Inhibition” value in series [4] was 37%. Further, the “% remain (HLM, 2 h)” value in “in vitro” (setting [7]) is recorded as 52%. Further, the figures for the inhibition at 1 µM on LCK tyrosine kinase and on human FGF-R1 were 36% and 95%, respectively.
On to `O=C(c1cccc(NC(=O)C2CC2)c1)c1ccc2c(/C=C/c3ccccn3)n[nH]c2c1` [Reference Example 41(k), 6-[3-(cyclopropylcarboxamido)benzoyl]-3-E-[2-(pyridin-2-yl)ethenyl]-1H-indazole], for which, in series [1] (setting [6]), the IC50 came out at 48 nM. The “% Inhibition” value in series [4] is listed as 1%. Moreover, the inhibition at 1 µM at LCK tyrosine kinase stood at 20%; at human FGF-R1, 49%.
For the compound `Cc1cc(C(=O)Nc2cccc(C(=O)c3ccc4c(/C=C/c5ccccn5)n[nH]c4c3)c2)on1` [Reference Example 41(m), 6-[3-((3-methylisoxazol-5-yl)carboxamido)benzoyl]-3-E-[2-(pyridin-2-yl)ethenyl]-1H-indazole], the IC50 in series [1] (setting [6]) amounted to 23 nM. In addition, the “% Inhibition” value in [4] amounted to 10%. Also, in the series “in vitro” (setting [7]), the “% remain (HLM, 2 h)” value amounted to 0%. Also, the inhibition at 1 µM turned out to be 40% at LCK tyrosine kinase and 67% on human FGF-R1.
As for `Cc1cc(C(=O)Nc2cc(C(=O)c3ccc4c(/C=C/c5ccccn5)n[nH]c4c3)c(C)cc2C)n(C)n1` [Reference Example 41(mm), 6-[2,4-dimethyl-5-((1,3-dimethyl-1H-Pyrazol-5-yl)carboxamido)benzoyl]-3-E-[2-(pyridin-2-yl)ethenyl]-1H-indazole], the “Initial Evaluation” value in series [4] is recorded as “+ (one plus being detectable regression judged to be approximately 25 percent or less)”.
With `Cn1nc(C(C)(C)C)cc1C(=O)Nc1cccc(C(=O)c2ccc3c(/C=C/c4ccccn4)n[nH]c3c2)c1` [Reference Example 41(n), 6-[3-((3-t-butyl-1-methyl-1H-pyrazol-5-yl)carboxamido)benzoyl]-3-E-[2-(pyridin-2-yl)ethenyl]-1H-indazole], the “% Inhibition” value in [4] was determined as 2%. In “in vitro” (setting [7]), the “% remain (HLM, 2 h)” value came to 70%. The figures for the inhibition at 1 µM on LCK tyrosine kinase and on human FGF-R1 were 66% and 87%, respectively.
